# Where two headings read alike, the source gives them in different places. Numbered stars: 1 amine (or outer) side, 2 acyl side, 3 side chain; on linkers, the order of the positions; unused ones are H or OH. Bridge positions count the residues as written; N and C are the ends. Peptide text beside a SMILES is read from it. * marks the point of attachment. X1 = O=C(O)CN1CCN(CC(=O)O)CCN(CC(=O)N2CCN(Cc3cc(C[*:1])cc(C[*:2])c3)CC2)CCN(CC(=O)O)CC1; Hexanoyl = CCCCCC(=O)*
# How the values were obtained:
# Caspase-7 = target: T1, Caspase-7 (Homo sapiens, UniProt P55210); experiment: biochemical; details: read-out: Percentage inhibition (%)
# T1 sequence (P55210 24-198 limits assumed): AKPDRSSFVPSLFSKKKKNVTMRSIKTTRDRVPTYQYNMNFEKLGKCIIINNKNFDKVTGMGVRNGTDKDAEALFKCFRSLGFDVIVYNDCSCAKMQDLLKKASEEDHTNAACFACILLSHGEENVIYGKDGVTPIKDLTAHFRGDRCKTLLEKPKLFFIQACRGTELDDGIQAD
# T1 sequence (P55210 207-303 limits assumed): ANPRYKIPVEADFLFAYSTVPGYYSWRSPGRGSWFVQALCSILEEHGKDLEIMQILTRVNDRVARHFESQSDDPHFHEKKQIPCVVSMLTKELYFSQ
# 5-HT2A (h) = 5-HT2A (h) (Homo sapiens, UniProt P28223); experiment: biochemical; details: read-out: % Inhibition of Specific Binding
# Chain of 5-HT2A (h) (P28223 whole entry): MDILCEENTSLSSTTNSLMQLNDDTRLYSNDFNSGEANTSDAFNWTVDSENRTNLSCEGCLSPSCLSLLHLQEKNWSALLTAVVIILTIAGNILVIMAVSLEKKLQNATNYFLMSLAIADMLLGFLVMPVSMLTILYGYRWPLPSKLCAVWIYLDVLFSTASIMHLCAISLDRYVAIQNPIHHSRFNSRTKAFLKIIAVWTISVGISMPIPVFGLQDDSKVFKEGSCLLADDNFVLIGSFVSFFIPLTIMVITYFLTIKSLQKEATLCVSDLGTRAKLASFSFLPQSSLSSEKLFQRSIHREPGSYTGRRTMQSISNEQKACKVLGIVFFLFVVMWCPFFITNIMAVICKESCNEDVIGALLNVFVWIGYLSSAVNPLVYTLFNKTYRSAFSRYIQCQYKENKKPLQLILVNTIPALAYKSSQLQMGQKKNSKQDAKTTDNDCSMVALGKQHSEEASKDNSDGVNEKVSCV
# [1] = target: T2, Matrix metalloprotease 9 (mutant Q279R) (Homo sapiens, UniProt P14780, Q279R); experiment: biochemical; details: read-out: Percentage inhibition (%)
# T2 sequence (P14780 94-707 Q279R): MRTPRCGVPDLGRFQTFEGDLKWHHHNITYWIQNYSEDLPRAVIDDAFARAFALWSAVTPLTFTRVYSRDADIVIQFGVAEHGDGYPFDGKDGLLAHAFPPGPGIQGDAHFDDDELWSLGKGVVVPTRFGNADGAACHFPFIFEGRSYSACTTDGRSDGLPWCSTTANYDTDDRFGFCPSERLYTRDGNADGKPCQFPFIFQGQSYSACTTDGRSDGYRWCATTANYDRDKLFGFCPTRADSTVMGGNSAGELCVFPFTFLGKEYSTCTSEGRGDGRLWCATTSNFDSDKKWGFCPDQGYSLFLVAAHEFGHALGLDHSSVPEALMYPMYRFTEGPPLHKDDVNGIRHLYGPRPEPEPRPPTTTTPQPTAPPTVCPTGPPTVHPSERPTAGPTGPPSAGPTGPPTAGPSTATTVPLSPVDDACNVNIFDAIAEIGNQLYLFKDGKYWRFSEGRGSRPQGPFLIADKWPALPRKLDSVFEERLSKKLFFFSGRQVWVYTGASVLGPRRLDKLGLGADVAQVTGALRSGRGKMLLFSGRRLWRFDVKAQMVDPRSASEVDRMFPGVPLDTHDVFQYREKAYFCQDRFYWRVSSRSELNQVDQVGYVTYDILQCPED
# NMDA = details: 10 μM
# [2] = test system: serine protease NS3 (a.a. 3-181) from Hepatitis C virus genotype 1b (mutant D168V)
# [3] = test system: serine protease NS3 (a.a. 3-181) from Hepatitis C virus genotype 1b (mutant R155Q)
# H1 (h) = H1 (h) (Homo sapiens, UniProt P35367); experiment: biochemical; details: read-out: % Inhibition of Specific Binding
# Chain of H1 (h) (P35367 whole entry): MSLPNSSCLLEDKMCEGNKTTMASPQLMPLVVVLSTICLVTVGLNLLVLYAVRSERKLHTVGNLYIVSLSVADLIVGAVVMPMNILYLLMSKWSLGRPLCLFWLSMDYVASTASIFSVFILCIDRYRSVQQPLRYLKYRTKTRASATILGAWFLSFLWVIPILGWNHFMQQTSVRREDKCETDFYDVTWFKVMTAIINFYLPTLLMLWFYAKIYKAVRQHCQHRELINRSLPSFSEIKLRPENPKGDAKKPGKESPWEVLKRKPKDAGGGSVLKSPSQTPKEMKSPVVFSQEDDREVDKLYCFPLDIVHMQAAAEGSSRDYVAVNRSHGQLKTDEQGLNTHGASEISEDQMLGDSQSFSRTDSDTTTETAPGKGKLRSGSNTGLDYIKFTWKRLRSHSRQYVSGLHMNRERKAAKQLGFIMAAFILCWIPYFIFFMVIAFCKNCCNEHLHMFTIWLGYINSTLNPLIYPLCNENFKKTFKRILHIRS
# [4] = test system: serine protease NS3 (a.a. 3-181) from Hepatitis C virus genotype 1a (mutant D168V)
# Activated Protein C = Activated Protein C (Homo sapiens, UniProt P04070); experiment: biochemical; details: read-out: Percentage inhibition (%)
# Chain of Activated Protein C (P04070 212-461 limits assumed): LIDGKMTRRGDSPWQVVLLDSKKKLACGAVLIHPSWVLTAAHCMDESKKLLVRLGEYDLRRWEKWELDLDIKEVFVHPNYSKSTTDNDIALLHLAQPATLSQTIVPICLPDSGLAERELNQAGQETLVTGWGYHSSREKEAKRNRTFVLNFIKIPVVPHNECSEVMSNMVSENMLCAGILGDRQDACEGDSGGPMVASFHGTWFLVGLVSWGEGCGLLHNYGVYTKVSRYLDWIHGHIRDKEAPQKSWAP
# Chain of Activated Protein C (P04070 43-197 partner limits assumed): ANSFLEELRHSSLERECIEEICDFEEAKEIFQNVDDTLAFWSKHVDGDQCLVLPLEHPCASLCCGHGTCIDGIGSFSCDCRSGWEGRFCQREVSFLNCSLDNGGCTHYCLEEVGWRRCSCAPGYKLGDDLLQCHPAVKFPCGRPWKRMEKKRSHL
# M1 (h) = M1 (h) (Homo sapiens, UniProt P11229); experiment: biochemical; details: read-out: % Inhibition of Specific Binding
# Chain of M1 (h) (P11229 whole entry): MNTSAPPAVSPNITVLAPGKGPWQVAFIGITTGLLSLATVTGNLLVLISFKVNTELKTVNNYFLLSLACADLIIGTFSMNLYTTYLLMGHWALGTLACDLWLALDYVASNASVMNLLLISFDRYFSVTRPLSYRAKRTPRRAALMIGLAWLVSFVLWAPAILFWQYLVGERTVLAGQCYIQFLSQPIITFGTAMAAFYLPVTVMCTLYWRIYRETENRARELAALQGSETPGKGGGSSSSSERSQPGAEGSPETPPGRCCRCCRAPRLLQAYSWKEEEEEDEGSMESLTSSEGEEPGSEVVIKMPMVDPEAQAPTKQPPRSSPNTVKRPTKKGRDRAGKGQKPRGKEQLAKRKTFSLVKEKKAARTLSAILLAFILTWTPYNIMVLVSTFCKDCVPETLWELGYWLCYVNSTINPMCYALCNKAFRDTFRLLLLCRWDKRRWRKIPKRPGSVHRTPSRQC
# CB2 (h) = CB2 (h) (Homo sapiens, UniProt P34972); experiment: biochemical; details: read-out: % Inhibition of Specific Binding
# Chain of CB2 (h) (P34972 whole entry): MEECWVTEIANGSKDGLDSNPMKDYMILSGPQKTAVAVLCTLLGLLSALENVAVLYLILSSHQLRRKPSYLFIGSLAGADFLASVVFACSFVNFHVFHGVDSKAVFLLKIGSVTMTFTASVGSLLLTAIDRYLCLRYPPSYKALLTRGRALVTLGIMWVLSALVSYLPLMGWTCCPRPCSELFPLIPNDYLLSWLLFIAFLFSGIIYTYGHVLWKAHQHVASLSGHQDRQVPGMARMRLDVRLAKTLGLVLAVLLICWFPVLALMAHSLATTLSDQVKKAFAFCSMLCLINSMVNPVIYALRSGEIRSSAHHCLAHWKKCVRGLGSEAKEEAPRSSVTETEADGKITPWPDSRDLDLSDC
# DPP9 = DPP9 (Homo sapiens, UniProt Q86TI2); experiment: biochemical; details: read-out: Percentage inhibition (%)
# Chain of DPP9 (Q86TI2 whole entry, species assumed): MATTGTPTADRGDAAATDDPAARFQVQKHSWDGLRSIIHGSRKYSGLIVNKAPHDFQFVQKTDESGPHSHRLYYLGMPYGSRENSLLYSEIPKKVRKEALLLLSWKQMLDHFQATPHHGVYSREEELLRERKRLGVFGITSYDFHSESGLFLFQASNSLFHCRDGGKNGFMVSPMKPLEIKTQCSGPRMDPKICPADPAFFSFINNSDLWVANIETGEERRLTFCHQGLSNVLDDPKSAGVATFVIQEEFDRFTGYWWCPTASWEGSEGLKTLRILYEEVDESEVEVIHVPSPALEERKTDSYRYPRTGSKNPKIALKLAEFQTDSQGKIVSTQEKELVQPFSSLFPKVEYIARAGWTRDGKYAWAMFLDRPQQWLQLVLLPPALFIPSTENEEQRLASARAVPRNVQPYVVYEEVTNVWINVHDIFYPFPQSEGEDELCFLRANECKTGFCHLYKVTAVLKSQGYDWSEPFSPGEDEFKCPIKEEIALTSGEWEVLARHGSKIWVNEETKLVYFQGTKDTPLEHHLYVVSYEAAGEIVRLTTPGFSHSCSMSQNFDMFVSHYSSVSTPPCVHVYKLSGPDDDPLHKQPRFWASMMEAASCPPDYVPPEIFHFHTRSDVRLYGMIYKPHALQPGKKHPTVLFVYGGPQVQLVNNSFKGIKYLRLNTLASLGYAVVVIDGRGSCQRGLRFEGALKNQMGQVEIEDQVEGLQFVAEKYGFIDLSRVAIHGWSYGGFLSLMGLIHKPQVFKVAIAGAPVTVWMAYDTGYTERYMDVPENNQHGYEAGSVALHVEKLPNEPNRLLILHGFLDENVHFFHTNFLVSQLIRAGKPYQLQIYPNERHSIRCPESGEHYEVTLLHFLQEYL
# Ataxin3 = Ataxin3 (Homo sapiens, UniProt P54252); experiment: biochemical; details: read-out: Percentage inhibition (%)
# Chain of Ataxin3 (P54252 whole entry, species assumed): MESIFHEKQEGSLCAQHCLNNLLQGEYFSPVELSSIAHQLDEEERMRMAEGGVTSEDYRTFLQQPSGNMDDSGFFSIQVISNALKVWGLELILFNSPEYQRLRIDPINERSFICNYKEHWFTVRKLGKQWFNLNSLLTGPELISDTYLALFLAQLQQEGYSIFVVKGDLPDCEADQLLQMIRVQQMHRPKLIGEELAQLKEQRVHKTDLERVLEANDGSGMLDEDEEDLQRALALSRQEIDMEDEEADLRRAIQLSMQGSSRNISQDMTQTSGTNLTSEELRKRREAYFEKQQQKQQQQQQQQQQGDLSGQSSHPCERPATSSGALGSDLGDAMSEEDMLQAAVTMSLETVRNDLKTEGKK
# H2 (h) = H2 (h) (Homo sapiens, UniProt P25021); experiment: biochemical; details: read-out: % Inhibition of Specific Binding
# Chain of H2 (h) (P25021 whole entry): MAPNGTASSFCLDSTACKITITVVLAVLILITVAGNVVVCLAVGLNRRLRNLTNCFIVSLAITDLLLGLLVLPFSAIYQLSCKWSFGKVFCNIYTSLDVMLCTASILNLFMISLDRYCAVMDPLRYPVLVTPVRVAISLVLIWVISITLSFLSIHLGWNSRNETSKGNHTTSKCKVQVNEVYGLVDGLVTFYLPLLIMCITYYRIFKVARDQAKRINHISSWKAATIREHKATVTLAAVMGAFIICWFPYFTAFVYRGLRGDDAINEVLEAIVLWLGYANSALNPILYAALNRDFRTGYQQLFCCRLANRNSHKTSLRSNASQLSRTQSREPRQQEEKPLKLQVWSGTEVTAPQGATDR
# Matrix metalloprotease 2 = target: T3, Matrix metalloprotease 2 (Homo sapiens, UniProt P08253); experiment: biochemical; details: read-out: Percentage inhibition (%)
# T3 sequence (P08253 110-660): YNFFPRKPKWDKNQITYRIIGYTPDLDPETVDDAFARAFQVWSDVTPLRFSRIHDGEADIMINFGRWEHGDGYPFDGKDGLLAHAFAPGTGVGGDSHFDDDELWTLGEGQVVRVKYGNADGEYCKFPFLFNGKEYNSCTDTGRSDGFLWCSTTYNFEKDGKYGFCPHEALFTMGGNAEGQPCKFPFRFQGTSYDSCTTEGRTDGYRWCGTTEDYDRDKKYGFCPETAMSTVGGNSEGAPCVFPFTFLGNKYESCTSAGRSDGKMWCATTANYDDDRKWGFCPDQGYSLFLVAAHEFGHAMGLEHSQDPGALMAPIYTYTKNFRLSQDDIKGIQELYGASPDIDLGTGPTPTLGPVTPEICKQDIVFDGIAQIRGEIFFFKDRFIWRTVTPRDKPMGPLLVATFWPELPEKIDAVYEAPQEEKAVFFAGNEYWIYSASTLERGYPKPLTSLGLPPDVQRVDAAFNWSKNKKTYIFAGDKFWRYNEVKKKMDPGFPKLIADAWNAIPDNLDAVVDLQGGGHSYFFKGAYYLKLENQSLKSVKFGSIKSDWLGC
# [5] = target: T4, Ubiquitin carboxy-terminal hydrolase L3 (Homo sapiens, UniProt P15374); experiment: biochemical; details: read-out: Percentage inhibition (%)
# T4 sequence (P15374 1-230): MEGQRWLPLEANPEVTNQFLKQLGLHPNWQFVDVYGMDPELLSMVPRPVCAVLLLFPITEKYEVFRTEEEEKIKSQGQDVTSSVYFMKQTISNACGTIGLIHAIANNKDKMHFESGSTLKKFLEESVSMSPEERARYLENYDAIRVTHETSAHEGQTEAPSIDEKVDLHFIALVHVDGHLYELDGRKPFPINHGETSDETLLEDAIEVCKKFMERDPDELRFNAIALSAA
# 5-HT transporter (h) = 5-HT transporter (h) (Homo sapiens, UniProt P31645); experiment: biochemical; details: read-out: % Inhibition of Specific Binding
# Chain of 5-HT transporter (h) (P31645 whole entry): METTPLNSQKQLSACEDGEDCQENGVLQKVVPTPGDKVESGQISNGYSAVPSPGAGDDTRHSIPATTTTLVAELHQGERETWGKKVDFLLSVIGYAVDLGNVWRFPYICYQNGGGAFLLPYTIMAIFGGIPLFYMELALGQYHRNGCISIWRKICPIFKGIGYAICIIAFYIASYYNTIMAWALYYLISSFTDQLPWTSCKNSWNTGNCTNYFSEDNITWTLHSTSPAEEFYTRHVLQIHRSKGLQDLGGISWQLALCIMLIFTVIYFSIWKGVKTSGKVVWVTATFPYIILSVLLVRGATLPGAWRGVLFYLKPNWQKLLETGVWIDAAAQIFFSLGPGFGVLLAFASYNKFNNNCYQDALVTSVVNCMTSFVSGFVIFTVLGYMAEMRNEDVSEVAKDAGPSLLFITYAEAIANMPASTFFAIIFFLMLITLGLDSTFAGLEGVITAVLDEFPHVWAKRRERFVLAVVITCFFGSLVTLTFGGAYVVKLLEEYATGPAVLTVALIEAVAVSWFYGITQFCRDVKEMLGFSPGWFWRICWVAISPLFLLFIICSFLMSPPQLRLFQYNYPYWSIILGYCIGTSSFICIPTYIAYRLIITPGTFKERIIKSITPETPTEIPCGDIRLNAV
Compound,inhibition at 1 µM (Caspase-7),inhibition at 10 µM (Caspase-7),inhibition at 10 µM (5-HT2A (h)),inhibition at 1 µM [1],inhibition at 10 µM [1],% Inhibition of Specific Binding (NMDA),Percentage inhibition (%) ([2]; 1 μM),Percentage inhibition (%) ([2]; 10 μM),Percentage inhibition (%) ([3]; 1 μM),Percentage inhibition (%) ([3]; 10 μM),inhibition at 10 µM (H1 (h)),Percentage inhibition (%) ([4]; 1 μM),Percentage inhibition (%) ([4]; 10 μM),inhibition at 1 µM (Activated Protein C),inhibition at 10 µM (Activated Protein C),inhibition at 10 µM (M1 (h)),inhibition at 10 µM (CB2 (h)),inhibition at 1 µM (DPP9),inhibition at 10 µM (DPP9),inhibition at 1 µM (Ataxin3),other results
"CCCCCC(=O)N[C@H]1CSCc2cc(cc(CN3CCN(C(=O)CN4CCN(CC(=O)O)CCN(CC(=O)O)CCN(CC(=O)O)CC4)CC3)c2)CSC[C@@H](C(=O)N[C@@H](CC(=O)O)C(N)=O)NC(=O)[C@H](Cc2ccccc2)NC(=O)[C@H](CCC(N)=O)NC(=O)[C@H]([C@@H](C)O)NC(=O)[C@@H]2CCCN2C(=O)[C@@H]2CCCN2C1=O [Compound 3BP-3407, Hex-[Cys(tMeBn(DOTA-PP))-Pro-Pro-Thr-Gln-Phe-Cys]-Asp-NH2] (Hexanoyl-CPPTQFCD-NH2; linker 1-7 via X1)",-3%,-3%,-2%,3%,2%,9%,1%,−6%,0%,2%,11%,1%,−68%,5%,8%,6%,2%,-1%,0%,1%,inhibition at 10 µM (Ataxin3): 10%; inhibition at 10 µM (H2 (h)): -5%; inhibition at 1 µM (Matrix metalloprotease 2): 3%; inhibition at 10 µM (Matrix metalloprotease 2): 3%; inhibition at 1 µM [5]: -1%; inhibition at 10 µM [5]: 14%; inhibition at 10 µM (5-HT transporter (h)): -3%
"CCCCCC(=O)N[C@H]1CSCc2cc(CSCCNC(=O)CN3CCN(CC(=O)O)CCN(CC(=O)O)CCN(CC(=O)O)CC3)cc(c2)CSC[C@@H](C(=O)O)NC(=O)[C@H](Cc2ccccc2)NC(=O)[C@H](CCC(N)=O)NC(=O)[C@H]([C@@H](C)O)NC(=O)[C@@H]2CCCN2C(=O)[C@@H]2CCCN2C1=O [Compound 3BP-3554, Hex-[Cys(tMeBn(DOTA-AET))-Pro-Pro-Thr-Gln-Phe-Cys]-OH]",-1%,-7%,4%,3%,2%,1%,−2%,−17%,0%,−5%,4%,−39%,−372%,-11%,1%,8%,-5%,-1%,-5%,2%,inhibition at 10 µM (Ataxin3): -1%; inhibition at 10 µM (H2 (h)): -16%; inhibition at 1 µM (Matrix metalloprotease 2): -1%; inhibition at 10 µM (Matrix metalloprotease 2): -2%; inhibition at 1 µM [5]: 0%; inhibition at 10 µM [5]: 0%; inhibition at 10 µM (5-HT transporter (h)): -8%
